Test results published in US20260219274A1, “POLYOL SWEETNERS AND CARDIOVASCULAR AND THROMBOTIC EVENT RISK” (THE CLEVELAND CLINIC FOUNDATION, priority 2023, published 2026).

Assays:
dogs = settings: dog, in vivo; cited from earlier work
human whole blood = assay: Imaging flow cytometry of platelet-leukocyte aggregates in whole blood; assay type: cell-based; settings: pre-incubation with physiological levels of xylitol, TRAP6 7.5 μM
Protocol: Imaging flow cytometry was performed on an Amnis ImageStreamX MK II two-camera system using anti-CD45 AF488, anti-CD41 AF647 and anti-CD62P-PE. Details and the gating strategy are described in supplemental methods.
Whole blood collected from consented healthy volunteers was incubated with xylitol (30 or 100 μM) or vehicle for 30 min. Where indicated, the samples were then stimulated with 7.5 μM TRAP6 for 10 min. Blood samples were then incubated with anti-CD45 AF488 (Catalogue #FAB1430G, R&D Systems, MN, USA), anti-CD41 AF647 (Catalogue #303726, Biolegend, San Diego, CA, USA) and anti-CD62P-PE (Catalogue #555524, BD PharMingen, San Diego, CA, USA) for 20 min at room temperature in the dark. After gentle red blood cell lysis using VersaLyse Lysing solution (Catalogue #A09777, Beckman Coulter, Brea, California, USA), cells were gently spun down and resuspended in HBSS-BSA. Platelet leucocyte aggregates were measured on an Amnis ImageStreanX MK II two-camera system (Luminex, Austin, TX, USA). Data were analyzed using Amnis IDEAS software (Luminex, Austin, TX, USA).
IDEAS analysis was performed as follows. Gating out of focus events using Gradient RMS in the brightfield image. Gating on CD45+ events using the Intensity and Max Pixel features. Elimination of false positive CD45 events and selection of only true CD45+ cells using Intensity vs. Area of CD45+. […]

## OC[C@@H](O)[C@H](O)[C@@H](O)CO [xylitol]
dogs
  toxicity to dogs: highly toxic
Human whole blood
  TRAP6 stimulated platelet-leukocyte aggregates: dose-dependent increase
